Data published in US20200222370A1, “PHARMACEUTICAL COMPOSITION” (KOWA COMPANY, LTD., priority 2017, published 2020).

How the values were obtained:
[1] = pH value of pemafibrate itself dissolved or dispersed in purified water; format: physicochemical; settings: pemafibrate 5 μg/mL as free form in purified water
Method: Herein, the “a pH value of a solution produced by dissolving or dispersing a pharmaceutical composition in water” means a value obtained by measuring at 25° C. a pH of a solution produced by dissolving or dispersing a pharmaceutical composition containing pemafibrate, a salt thereof or a solvate thereof in water so that the concentration of pemafibrate in terms of a free form is 5 μg/mL. Incidentally, purified water is used as water. First a measurement of a pH value of pemafibrate itself was performed. To be more specific, pemafibrate was dissolved or dispersed in purified water so that the concentration of pemafibrate as the free form was 5 μg/mL. Then, a pH value of the obtained solution at 25° C. was measured.

[2] = Stability of pemafibrate under different pH environments (buffer solutions, 80° C., 96 hours, HPLC); format: physicochemical; settings: 5 μg/mL, 96 hours later
Method: In Test Examples below, measurement was performed through HPLC using an ODS column as a column and an ultraviolet spectrophotometer as a detector. Additionally, the following studies were conducted in order to evaluate the stability of pemafibrate under different pH environments. Namely, buffer solutions were prepared in accordance with the descriptions about buffer solutions of U.S.Pharmacopeia (2013 Edition) and Japanese Pharmacopeia (17th Edition), so as to have the following pH values at 25° C.: pH 2.0 (hydrochloric acid buffer solution including potassium chloride); pH 3.0 and 4.0 (Acid phthalate buffer solution including potassium biphthalate); pH 6.0 and 7.0 (phosphate buffer solution); pH 8.0, 9.0 and 10.0 (Alkaline borate buffer solution including boric acid, potassium chloride and sodium hydroxide); pH 11.0 (Ammonium buffer solution including ammonia and ammonium chloride); and pH 12.0 (phosphate buffer solution). In each of the buffer solutions, pemafibrate was dissolved or dispersed so that its amount as the free form was 5 μg/mL, thereby producing liquid samples having different pH conditions. The liquid samples were stored at 80° C. for 96 hours. The amounts of pemafibrate-derived decomposition products (related substances) in the liquid samples after storage for 96 hours were evaluated through the following method. Specifically, acetonitrile was added to each of the liquid samples, and then they were measured by using HPLC. The sum of peak areas derived from related substances on the chromatogram was calculated in terms of the ratio (%) to the sum of peak areas derived from pemafibrate and related substances, and the ratio was defined as the “Total amount (%) of related substances”.

CC[C@@H](Oc1cccc(CN(CCCOc2ccc(OC)cc2)c2nc3ccccc3o2)c1)C(=O)O [pemafibrate, (2R)-2-[3-([1,3-Benzoxazol-2-yl[3-(4-methoxyphenoxy)propyl]amino]methyl)phenoxy]butanoic acid]
pH value (25° C.) [1]: ~5.9
Total amount (%) of related substances ([2]; pH 2.0 buffer): 27.1%
Total amount (%) of related substances ([2]; pH 3.0 buffer): 4.1%
Total amount (%) of related substances ([2]; pH 4.0 buffer): 1.1%
Total amount (%) of related substances ([2]; pH 6.0 buffer): 1.3%
Total amount (%) of related substances ([2]; pH 7.0 buffer): 0.9%
Total amount (%) of related substances ([2]; pH 8.0 buffer): 0.4%
Total amount (%) of related substances ([2]; pH 9.0 buffer): <0.1%
Total amount (%) of related substances ([2]; pH 10.0 buffer): 0.1%
Total amount (%) of related substances ([2]; pH 11.0 buffer): 0.1%
Total amount (%) of related substances ([2]; pH 12.0 buffer): <0.1%
